Laboratory results taken from PubChem BioAssay (NCI).
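In this assay, cells in 96-well plates receive the compound at five concentrations for 48 hours. Endpoints are linearly interpolated between the surrounding concentrations. Definition used: TGI = concentration required for complete inhibition of growth.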

How the values were obtained:
Experiment in all cases: inhibition of tumour cell growth, NCI panel, 48 h
[1] = tested on: EKVX NSCLC
[2] = tested on: OVCAR-3 ovarian
[3] = tested on: OVCAR-4 ovarian
[4] = tested on: PC-3 prostate
[5] = tested on: T-47D breast
[6] = tested on: TK-10 renal
[7] = tested on: 786-0 renal
[8] = tested on: MDA-MB-231 breast
[9] = tested on: SK-MEL-28 melanoma
[10] = tested on: SR leukemia

Structure (SMILES)	TGI [1] [µM]	TGI [2] [µM]	TGI [3] [µM]	TGI [4] [µM]	TGI [5] [µM]	TGI [6] [µM]	TGI [7] [µM]	TGI [8] [µM]	TGI [9] [µM]	TGI [10] [µM]
COc1ccc2[nH]c(C(=O)N3CC(CCl)c4c3cc(N)c3ccccc43)cc2c1 (stereo not drawn)	0.128	> 100	< 0.01	0.0447	< 0.0281	11.4	–	–	–	–
CN[C@@H](C)[C@@H](O)c1ccccc1	> 100	> 10	> 100	> 100	> 100	> 100	> 100	> 10	> 100	–
COC(=O)NC(Cc1ccccc1)NC(C)=O (stereo not drawn)	> 100	> 100	> 100	> 100	> 100	> 100	> 100	> 100	> 100	> 100
CCCCCN(CCCCC)CC(C)(C)C(O)c1ccc(OC)c2ccccc12 (stereo not drawn)	25.9	26	27.9	26.4	21.1	25.6	35.7	31.2	24.5	11.3
Cc1cc(N2CCCC2)c([N+](=O)[O-])cc1[N+](=O)[O-]	> 100	> 100	> 100	> 100	> 100	–	> 100	> 100	> 100	> 100
CCN(CC)CCOc1ccc(C(O)(Cc2ccc(OC)cc2)c2ccccc2)cc1 (stereo not drawn)	80.6	> 100	75.3	–	–	76.4	32.3	–	27	32
CC(=O)Oc1cc(OC(C)=O)c2c(C)cc(=O)oc2c1	> 100	> 100	> 100	> 100	–	> 100	> 100	> 100	> 100	> 100
N=c1oc2ccccc2cc1-c1nc2ccccc2c(=O)[nH]1	> 100	–	> 100	> 100	> 100	> 100	> 100	> 100	> 100	> 100
O=C(O)CCc1ccc2c(c1)CC1(Cc3ccccc3C1)C2	> 100	> 100	> 100	> 100	> 100	> 100	> 100	> 100	–	> 100
O=[N+]([O-])c1ccc(N2N=C(c3ccc4ccccc4c3O)CC2c2ccc(Cl)cc2)c([N+](=O)[O-])c1 (stereo not drawn)	–	79.9	> 100	> 100	> 100	> 100	> 100	> 100	> 100	40.6
COc1ccc2c(c1)c1nn(CCN3CCCCC3)c3ccc4c(=O)n(CCN(C)C)c(=O)n2c4c13	0.0406	0.344	0.0158	0.603	0.454	0.44	0.059	0.126	0.596	–
COc1ccc(N=C2C(=Nc3ccc(OC)cc3)N(c3ccc(N(C)C)cc3)C(=S)N2c2ccc(OC)cc2)cc1	> 100	> 100	> 100	> 100	> 100	> 100	> 100	> 100	> 100	> 100
CCOC(=O)C(NC(=O)CC)(Nc1ccc(F)c(Cl)c1)C(F)(F)F (stereo not drawn)	> 100	> 100	> 100	> 100	> 100	> 100	> 100	> 100	> 100	> 100
Cc1ccc(S(=O)(=O)n2ccc(-c3ccc4ccn(S(=O)(=O)c5ccc(C)cc5)c4c3)c2)cc1	> 100	> 100	> 100	> 100	> 100	> 100	> 100	> 100	–	> 100
CN(Cc1cnc2nc(N)nc(N)c2n1)c1ccc(C(=O)NC(CCC(=O)NC(CC(P(=O)(O)O)P(=O)(O)O)C(=O)O)C(=O)O)cc1 (stereo not drawn)	> 100	> 100	> 100	> 100	> 100	> 100	> 100	> 100	> 100	> 100
CCC(=O)/C(=C\I)c1ccccc1	33.6	3.12	–	9.34	–	28.3	3.33	3.29	6.45	–
C=Cc1nc(C#N)c(N)o1	> 100	> 100	> 100	> 100	> 100	> 100	> 100	> 100	> 100	–
N#CC[N+]1(Cc2ccccn2)CCCC1	> 100	> 100	> 100	> 100	> 100	> 100	> 100	> 100	> 100	–
COC([C@@H](OC(=O)c1ccccc1)[C@H](OC(=O)c1ccccc1)C(O)COC(=O)c1ccccc1)n1cc(C)c(=O)[nH]c1=O (stereo partly drawn)	> 100	97.1	82.4	> 100	> 100	> 100	77	> 100	> 100	> 100
CN(C)CC1CCC/C(=C\c2ccc(OC(=O)/C=C/c3ccc(Cl)c(Cl)c3)cc2)C1=O (stereo not drawn)	23.5	14.6	> 60.3	13.2	6.75	5.96	4.19	11.9	28.1	3.54
O=C(N/N=C(/COc1ccccc1Cl)N=Cc1ccncc1)c1ccncc1	> 100	> 100	> 100	> 100	> 100	> 100	> 100	> 100	> 100	–
COc1ccc([C@]23CCN4COC[C@@H]([C@H]42)C2(CC3)OCC(C)(C)CO2)cc1OC	> 100	–	> 100	> 100	> 100	> 100	> 100	> 100	> 100	> 100
